Results as given in patent publication US20240309014A1, “MACROCYCLIC COMPOUNDS AND USES THEREOF” (President and Fellows of Harvard College, priority 2017, published 2024).

Tests used:
[1] = test system: FaDu-Luc subcutaneous xenograft; test: FaDu s.c. xenograft model in combination with radiation; type: in vivo, nude mice
Description: Luciferase-transduced FaDu-Luc cells were established by retrovirus-mediated gene transfer. […]. Then, helper-free recombinant retroviruses were produced by transfecting the above retroviral expression vector together with pGP and pE-Ampho plasmids (Takara Bio; Shiga, Japan), into 293T cells (ATCC; Manassas, USA). Next, FaDu cells were infected with the recombinant retroviruses, and were cultured for two weeks in the presence of puromycin (2 μg/mL). The infected cells were selected from a polyclonal proliferative population of the culture.
A luciferase-transduced human SCCHN cell line FaDu-Luc, which had been cultured in an RPMI-1640 medium containing 10% FBS, and penicillin and streptomycin, was adjusted to a concentration of 5×10^7 cells/mL with Hank's Balanced Salt Solution to prepare a cell suspension. […] Thirteen days after the cell inoculation, the tumor volume was analyzed using bioluminescence signal from FaDu-Luc cells. […] The bioluminescence signal was monitored using the IVIS […] series (PerkinElmer, Waltham, MA), consisting of a highly sensitive, cooled chargecoupled device camera. […] Data were analyzed using total photon flux emission (photons/second) in the ROIs. The total photon flux emission was calculated in accordance with the following calculation formulae: […]

[2] = test system: murine undifferentiated colon carcinoma cell line CT26; test: CT26 subcutaneous syngeneic model in combination with anti-mPD-1 antibody; type: in vivo, BALB/c mice
Description: A murine undifferentiated colon carcinoma cell line CT26, which had been cultured in an RPMI-1640 medium containing 10% FBS, and penicillin and streptomycin, was adjusted to a concentration of 2×10^7 cells/mL with Hank's Balanced Salt Solution to prepare a cell suspension. On day 1, the cell suspension was inoculated in a volume of 100 μL into a subcutaneous part of a right flank of BALB/c mice, 6 weeks of ages (BALB/cAnNCrlCrlj, female, Charles River Laboratories Japan, Inc.). Two days after the cell inoculation, the mice were randomly divided into four groups and each group consists of 8 mice. The shortest diameter and the longest diameter of a tumor in each mouse were measured by using an electronic digital caliper (Digimatic™ caliper, Mitutoyo Corporation), so as to calculate the volume of the tumor in accordance with the following calculation formula: […]
The test compound was intravenously administered at 0.09 mg/kg on days 3 and 11. Anti-mPD-1 antibody (BE0146, Bio X Cell) was intravenously administered at 10 mg/kg on days 3, 7, 11, and 15.

[3] = test system: human fibrosarcoma cell line HT-1080 xenograft; test: HT-1080 xenograft as monotherapy (FIG. 17); type: in vivo, athymic mice; conditions: 180 μg/kg i.v. Day 1 and Day 8
Description: A human fibrosarcoma cell line HT-1080, which had been cultured in an E-MEM containing 10% FBS, NEAA and antibiotics was adjusted to a concentration of 3×10^7 cells/mL with medium to prepare a cell suspension. The cell suspension was inoculated in a volume of 100 μL into a subcutaneous part of a right flank of athymic mice (CAnN.Cg-Foxnlnu/CrlCrlj, female, 6 weeks old, Charles River Japan Inc.). Six days after cell inoculation (Day 1), the length and the width of a tumor in each mouse were measured by using an electronic digital caliper (Mitutoyo Corporation), so as to calculate the volume of the tumor in accordance with the following calculation formula: […]
On the basis of TV, the mice were randomly grouped (Day 1). Each group was consisted in six mice. Compound (1) was dissolved in DMSO and a solution was stored in the freezer before use. Compound (1) (180 μg/kg) was diluted with saline and intravenously injected on Day 1 and Day 8.

[4] = test system: human synovial sarcoma cell line HS-SY-II xenograft; test: HS-SY-II xenograft model as monotherapy (FIG. 22); type: in vivo, nude mice
Description: A human synovial sarcoma cell line HS-SY-II, which had been cultured in a DMEM containing 10% FBS, and penicillin-streptomycin, was adjusted to a concentration of 1×10^8 cells/mL with 50% Geltrex (Thermo Fisher Scientific) in Hanks' Balanced Salt Solution to prepare a cell suspension. The cell suspension was inoculated in a volume of 100 μL into a subcutaneous part of a right flank of nude mice, 5 weeks of ages (CAnN.Cg-Foxnlnu/CrlCrlj, female, Charles River Laboratories Japan Inc.). Thirty days after cell inoculation (Day 1), the shortest diameter and the longest diameter of a tumor in each mouse were measured by using an electronic digital caliper (Digimatic™ caliper, Mitutoyo Corporation), so as to calculate the volume of the tumor in accordance with the following calculation formulae: […]
On the basis of the volumes of tumors obtained on Day 1, the mice were grouped such that averages of the tumor volumes were substantially equal among the groups. The experiment was conducted on groups each consisting of six mice. Compound (1) was dissolved in DMSO and a solution was stored in the freezer before use. Immediately before the administration, the stock solution was diluted with saline. The test compound in saline was intravenously once-weekly administered at 90 μg/kg or 180 μg/kg for 2 weeks (on Day 1 and Day 8).

`C=C1C[C@@H]2CC[C@@]34C[C@H]5O[C@H]6[C@@H](O3)[C@H]3O[C@H](CC[C@@H]3O[C@H]6C5O4)CC(=O)O[C@@H]3[C@@H](C)[C@@H]4O[C@@H]5C[C@]6(C[C@@H]7O[C@]8(C[C@H](C)[C@@H]9O[C@H](CN)[C@H](O)C[C@@H]9O8)C[C@H](C)[C@@H]7O6)O[C@@H]5C[C@@H]4O[C@H]3C[C@H]3O[C@@H](CC[C@@H]1O2)C[C@@H](C)C3=C` (stereo in doubt) [Compound (1)] was tested. Which “Tumor Regression (%)” value ([1]; 0.09 mg/kg i.v. day 1 and 8 + radiation 18 Gy day 4 and 11) did it give?
Its value is 97%.

What about the “Tumor Regression (%)” value ([1]; 0.09 mg/kg i.v. day 1 and 8, without radiation) of the same molecule?
The value was 0%.

What about the “Inhibition of tumor growth on day 15 (%)” value ([2]; 0.09 mg/kg i.v. days 3 and 11 + anti-mPD-1 antibody 10 mg/kg) of the same molecule?
The value was 62%.

What about the “Inhibition of tumor growth on day 15 (%)” value ([2]; single agent: anti-mPD-1 antibody 10 mg/kg or Compound (1) 0.09 mg/kg) of the same molecule?
Its value is 30%.

And the antitumor activity [3]?
Its antitumor activity is “tumor regression”.

And the antitumor effect ([4]; 90 μg/kg i.v. Day 1 and Day 8)?
The antitumor effect was “tumor growth delay”.

And the antitumor effect ([4]; 180 μg/kg i.v. Day 1 and Day 8)?
The antitumor effect was “tumor regression”.
